From patent US20200377459A1, “CHARGED ION CHANNEL BLOCKERS AND METHODS FOR USE” (President and Fellows of Harvard College, priority 2015, published 2020)
Blank lines part the entries; values can stand above or below the molecule they belong to.

Tests used:
human Nav1.7 channels = biological target: T1, human Nav1.7 channels (Homo sapiens, UniProt Q15858); assay: Whole-cell patch clamp, use-dependent block of sodium current, drug applied intracellularly or externally; format: cell-based
T1 construct: expressed in transfected cells
Procedure: Whole-cell recordings were made of currents carried by voltage-activated channels in HEK293 cells stably expressing human Nav1.7 channels. Recordings were made using patch pipettes with resistances of 2-3.5 MQ when filled with internal solution, consisting of 61 mM CsF, 61 mM CsCl, 9 mM NaCl, 1.8 mM MgCl2, 9 mM EGTA, 14 mM creatine phosphate (tris salt), 4 mM MgATP, and 0.3 mM GTP (tris salt), 9 mM HEPES, pH adjusted to 7.2 with CsOH. The shank of the electrode was wrapped with Parafilm in order to reduce capacitance and allow optimal series resistance compensation without oscillation. Seals were obtained and the whole-cell configuration established with cells in Tyrode's solution (155 mM NaCl, 3.5 mM KCl, 1.5 mM CaCl2), 1 mM MgCl2, 10 mM HEPES, 10 mM glucose, pH adjusted to 7.4 with NaOH) with 10 mM TEACl. To ensure complete dialysis with pipette solution, recordings began after 5 to 10 min after establishment of the whole-cell configuration.
Currents were recorded at room temperature (21-23° C.) with an Axopatch 200 amplifier and filtered at 5 kHz with a low-pass Bessel filter. The amplifier was tuned for partial compensation of series resistance (typically 70-80% of a total series resistance of 4-10 MO). Currents were digitized using a Digidata 1322A data acquisition interface controlled by pClamp9.2 software (Axon Instruments) and analyzed using programs written in Igor Pro 4.0 (Wavemetrics, Lake Oswego, Oreg.). Currents were corrected for linear capacitative and leak currents determined using 5 mV hyperpolarizations delivered from the resting potential (usually −80 or −100 mV) and then appropriately scaled and subtracted.
Sodium currents were evoked by 30-msec depolarizations from −100 mV to −20 mV. To assay use-dependent block, pulses were delivered at series of increasing rates: 0.05 Hz for 1-min, 0.33 Hz for 1-min, 1 Hz for 1-min, 3 Hz for 1-min, 5 Hz for 30 seconds, 10 Hz for 30 seconds, with 1 minute rest between each series of pulses. After the series of pulses to induce use-dependent block, the time course of recovery was followed using pulses delivered at 01. Hz (2-min) and 0.05 Hz (1-min).
To induce use-dependent block, the depolarizations were delivered by series of increasing rates: 0.05 Hz for 1-min, 0.33 Hz for 1-min, 1 Hz for 1-min, 3 Hz for 1-min, 5 Hz for 30 seconds, 10 Hz for 30 seconds, with 1 minute rest between each series of pulses. After the series of pulses to induce use-dependent block, the time course of recovery was followed using pulses delivered at 01. Hz (2-min) and 0.05 Hz (1-min). Peak sodium current was plotted as a function of experimental time (1-min per division on the time axis).

[1] = test system: paw incision-induced thermal hyperalgesia; assay: Paw incision-induced thermal hyperalgesia; format: in vivo; details: rats, intradermal injection into the surgical wound, 1 and 3 hour post-treatment
Procedure: FIGS. 3A-3B are data showing reversal of paw incision-induced thermal hyperalgesia by charged sodium channel blockers. […] The data are means±SEM of 8 rats per group. The statistical comparison with the contralateral paw (*) is indicated by ***P<0.001. All procedures were approved by the Institutional Animal Care and Use Committees. Mice and rats were housed in standard environmental conditions (12-h light/dark cycle; 23° C.; food and water ad libitum) at facilities accredited by the Association for Assessment and Accreditation of Laboratory Animal Care. 8-week old male BALB/c (stock number: 001026) and C57BL/6J (stock number 000664) mice were purchased from Jackson Laboratory and respectively used in allergic airway inflammation (FIG. 5) and pain hypersensitivity model (FIGS. 2A-2D). 6-week old male Sprague-Dawley (stock number: 400) rats, 150±25 grams, were purchased from Charles River laboratory and used to assess pain hypersensitivity (FIG. 3). The compounds were injected in the plantar surface of each animal's right hind paw in 10 μl (mice) or 50 μl (rats) volume of 1:1 emulsion of Complete Freund's Adjuvant (CFA). […] On the 4th day, their thermal nociceptive threshold was evaluated. […] Impact of treatment was analyzed 1 h prior and 1, 3, 6 and 24 h post-treatment. […] With each reading the apparatus was set with a cut-off time of 32 s. […]

[2] = test system: thermal nociceptive threshold; assay: Thermal nociceptive threshold after acute intraplantar injection in naive animals; format: in vivo, rats; details: for difference in thermal nociceptive threshold between contralateral and injected paw: rats, acute intraplantar injection 50 μl, 0.5%, no injury
[3] = test system: ATF3 expression in dorsal root ganglion; assay: ATF3 immunofluorescence in dorsal root ganglion (neurotoxicity); format: in vivo; details: mice, hindpaw injection CFA+NEE 1%, 20 μl, 8 weeks earlier
Procedure: Representative picture of ATF3 (dark shading, FIGS. 4A-4C) expression in mice dorsal root ganglion slice exposed 8 weeks earlier to an acute hindpaw injection of CFA+N-ethyl-etidocaine (Compound 21) (1%, 20 μl).
Upon harvesting, the dorsal root ganglia were fixed overnight in 4% para-formaldehyde, washed in PBS and cryoprotected by sequential sucrose immersion (PBS 10-30% sucrose, Overnight). Ganglia were mounted in O.C.T. (Tissue-tek), and serially cut in 20 μm coronal sections with a cryostat. The sections were thaw-mounted on Fisherbrand superfrost microscopy slides and kept at −80° C. On the day of the experiment, sections were thawed at room temperature for 10 min. Sections were washed in PBS for 5 min, blocked for 1 h at room temperature (PBS, 0.1% Triton X-100, 5% BSA) and exposed to the primary antibodies (Overnight, 4° C.), namely rabbit anti-mouse ATF3 (Sigma, # HPA001562). Sections were then washed three times in PBS (5 min), exposed to the secondary antibodies and DAPI (1:2000. Sigma, # D9542) (2 h, dark), washed, coverslipped with Vectashield (Vector Labs) and observed under confocal microscope ([…], LSM-710).
To evaluate if such toxicity occurred with NEE (Compound 21), mice were injected with a combination of CFA+NEE (1%) 8 weeks prior to DRG extraction.

T1 sequence (Q15858 whole entry): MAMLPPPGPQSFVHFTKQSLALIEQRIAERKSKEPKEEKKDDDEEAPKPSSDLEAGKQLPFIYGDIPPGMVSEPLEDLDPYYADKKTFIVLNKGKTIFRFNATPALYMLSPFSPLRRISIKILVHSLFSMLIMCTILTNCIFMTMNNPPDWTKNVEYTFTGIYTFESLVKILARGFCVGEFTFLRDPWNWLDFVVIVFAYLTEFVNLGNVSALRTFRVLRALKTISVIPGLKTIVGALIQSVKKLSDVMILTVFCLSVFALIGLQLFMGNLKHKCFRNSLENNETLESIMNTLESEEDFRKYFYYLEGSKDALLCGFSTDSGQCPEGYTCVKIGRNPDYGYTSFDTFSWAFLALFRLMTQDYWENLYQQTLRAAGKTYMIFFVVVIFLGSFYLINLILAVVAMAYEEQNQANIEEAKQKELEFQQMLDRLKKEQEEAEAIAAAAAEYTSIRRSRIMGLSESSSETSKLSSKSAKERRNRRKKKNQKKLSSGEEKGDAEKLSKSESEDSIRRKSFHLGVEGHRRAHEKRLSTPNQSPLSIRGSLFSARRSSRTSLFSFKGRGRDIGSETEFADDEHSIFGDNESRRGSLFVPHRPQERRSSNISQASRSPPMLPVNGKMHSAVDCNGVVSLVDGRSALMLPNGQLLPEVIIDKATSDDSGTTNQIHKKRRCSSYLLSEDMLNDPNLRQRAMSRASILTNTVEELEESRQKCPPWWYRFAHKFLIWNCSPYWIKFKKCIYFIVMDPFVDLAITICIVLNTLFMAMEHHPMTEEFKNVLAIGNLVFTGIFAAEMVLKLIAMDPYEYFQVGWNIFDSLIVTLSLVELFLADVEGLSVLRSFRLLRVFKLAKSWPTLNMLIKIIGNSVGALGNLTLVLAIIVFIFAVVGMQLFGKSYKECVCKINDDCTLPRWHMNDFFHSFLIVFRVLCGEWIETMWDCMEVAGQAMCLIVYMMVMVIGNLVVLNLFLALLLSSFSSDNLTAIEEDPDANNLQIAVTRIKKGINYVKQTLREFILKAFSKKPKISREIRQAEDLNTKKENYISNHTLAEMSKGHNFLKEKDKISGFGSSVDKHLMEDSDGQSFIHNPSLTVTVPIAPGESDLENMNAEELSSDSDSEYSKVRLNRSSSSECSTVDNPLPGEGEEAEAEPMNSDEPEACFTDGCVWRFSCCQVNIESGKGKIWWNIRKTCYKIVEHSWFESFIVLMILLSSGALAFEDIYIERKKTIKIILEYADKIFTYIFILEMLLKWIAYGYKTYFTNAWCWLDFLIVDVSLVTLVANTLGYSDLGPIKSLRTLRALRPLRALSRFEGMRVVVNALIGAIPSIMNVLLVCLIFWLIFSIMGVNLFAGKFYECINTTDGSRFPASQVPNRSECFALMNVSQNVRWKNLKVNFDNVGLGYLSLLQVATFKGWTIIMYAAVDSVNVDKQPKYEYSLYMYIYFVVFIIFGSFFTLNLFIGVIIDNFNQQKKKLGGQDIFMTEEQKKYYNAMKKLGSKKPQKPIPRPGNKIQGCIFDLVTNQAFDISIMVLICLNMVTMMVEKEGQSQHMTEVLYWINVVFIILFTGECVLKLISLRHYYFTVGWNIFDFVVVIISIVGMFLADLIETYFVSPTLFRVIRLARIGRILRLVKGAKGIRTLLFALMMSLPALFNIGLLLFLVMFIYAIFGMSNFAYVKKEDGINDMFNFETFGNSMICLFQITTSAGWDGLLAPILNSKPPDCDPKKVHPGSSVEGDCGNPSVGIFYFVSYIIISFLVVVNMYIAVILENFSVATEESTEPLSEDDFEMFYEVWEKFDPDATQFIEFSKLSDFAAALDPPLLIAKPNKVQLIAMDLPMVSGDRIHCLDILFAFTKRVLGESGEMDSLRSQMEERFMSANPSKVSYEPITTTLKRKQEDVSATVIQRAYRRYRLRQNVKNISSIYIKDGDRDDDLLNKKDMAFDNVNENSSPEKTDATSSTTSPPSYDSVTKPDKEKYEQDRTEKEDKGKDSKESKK

inhibition at 100 µM (human Nav1.7 channels): 97%
SMILES: CCC[N+](CC)(CC)C(CC)C(=O)Nc1c(C)cccc1C (stereo not drawn) [Compound 21, N-ethyl etidocaine]
thermal hyperalgesia after surgical incision versus contralateral paw [1]: absent | long lasting analgesia in naïve animals ([2]; naïve animals): without long lasting analgesia | difference in thermal nociceptive threshold between contralateral and injected paw [2]: no differences | neurotoxicity: ATF3 expression in DRG [3]: does not induce neurotoxicity | neurotoxicity: ATF3 expression in DRG ([3]; listed as NEE): No ATF3 expression was observed

SMILES: CC[N+](CC)(CC)CC(=O)Nc1c(C)cccc1C [QX-314, reference compound]
use dependent accumulation of block (human Nav1.7 channels; 100 micromolar inside cell, stimulation frequencies from 1 to 10 Hz): strong use dependent accumulation of block | thermal hyperalgesia after surgical incision versus contralateral paw [1]: absent | difference in thermal nociceptive threshold between contralateral and injected paw [2]: no differences
